# Target: T1, KRAS G12C (Homo sapiens, UniProt P01116, G12C)
# T1 construct: expressed in transfected cells; host or cells: Ras Initiative (RI) KRAS G12C cells
# Experiment: phospho-ERK HTRF assay in Ras Initiative (RI) KRAS G12C cells
# Format: cell-based
# Settings: phospho-ERK1/2 HTRF, 11-point dose response from 2,500 nM, treatment for either 4 hours or 16 hours, read-out: pERK (RI)
# Method: Inhibition of KRAS G12C-Mediates Phospho-ERK1/2 Inhibition by Compounds of Formula I
# This Example illustrates that various compounds of the present disclosure inhibit KRAS G12C thereby mediating the downstream inhibition of phospho-ERK1/2.
# KRAS G12C mutant cell lines, NCI H358 (ATCC, CRL-5807), and Ras Initiative (R1) KRAS G12C were cultured according to published protocols and maintained at 37° C. in 5% CO2. The phospho-ERK HTRF assay was executed following provider's protocol (CisBio #64AERPEH). NCI-H358 or RI KRAS G12C cells were plated at a density of 50,000 cells per well in a 96-well plate (Corning #3903) in respective medias (for NCI-H358, RPMI+10% FBS+1% Pen/Strep, and for RI KRAS G12C, DMEM+10% FBS+1% Pen/Strep+4 ug/ml Blasticidin) and maintained at 37° C. in 5% CO2. Cells were allowed to adhere overnight and treated the following day with a Tecan D300e Digital Dispenser (Tecan Group Ltd., Switzerland) using an 11-point dose response starting at 2,500 nM of exemplified compounds followed by sequential 1:3 dilutions for either 4 hours or 16 hours. Following compound treatment, the cells were washed once with ice-cold PBS. Cells were lysed by adding 50 μl of lysis buffer (1×) supplemented with 1× Pierce Halt Protease and Phosphatase inhibitor and incubated for 30 minutes at 4° C. with shaking. After lysis, 16 μL of cell lysate from the 96-well cell-culture plate was transferred to a 384-well plate (Perkin Elmer #6007290). The premixed antibody solution was prepared by mixing (vol/vol) advanced phospho-ERK1/2 d2 antibody and advanced phospho-ERK1/2 Eu Cryptate antibody. The premixed antibody solution ([…]) was added to the detection plate containing cell lysate. The detection plate was incubated overnight at 4° C., the HTRF signal was read the next day by using either a Spectramax M5 or Spectramax i3 microplate reader (Molecular Devices, San Jose, CA, USA), and data was processed according to manufacturer's protocol.
# Compounds prepared according to the preceding procedures and characterized for inhibition of p-ERK according to the protocol provided herein are summarized in Table 3: […]
row,IC50 [nM],Molecule
1,0.5 to 2,"C=CC(=O)N1[C@H](C)CN(c2nc(=O)n3c4c(c(-c5ccc(F)cc5)c(C(F)(F)F)cc24)SC[C@@H](c2cncc(F)c2)C3)C[C@@H]1C [Example 126, (S)-8-((3S,5R)-4-acryloyl-3,5-dimethylpiperazin-1-yl)-11-(4-fluorophenyl)-3-(5-fluoropyridin-3-yl)-10-(trifluoromethyl)-3,4-dihydro-2H,6H-[1,4]thiazepino[2,3,4-ij]quinazolin-6-one]"
2,20 to 250,"(3R,11S)-8-((3S,5R)-4-acryloyl-3,5-dimethylpiperazin-1-yl)-11-(5-chloro-2,4-difluorophenyl)-3-((S)-3,4-dihydropyridin-4-yl)-10-(trifluoromethyl)-3,4-dihydro-2H,6H-[1,4]thiazepino[2,3,4-ij]quinazolin-6-one [Example 101B]"

# — patent US20250313577A1, “TRICYCLIC PYRIDONES AND PYRIMIDONES” (ERASCA, INC, priority 2022, published 2025)
